# Laboratory results published in publication PMC8198038, “In Vitro Evaluation of Antiproliferative Properties of Novel Organotin(IV) Carboxylate Compounds with Propanoic Acid Derivatives on a Panel of Human Cancer Cell Lines” (Molecules, 2021).
# How the values were obtained:
# [1] = tested on: MCF-7 (breast cancer) cells; test: CV (crystal violet) assay, MCF-7 cells; assay type: cell-based, human; details: for IC50: CV assay, 48 h incubation, read-out: IC50 (mean ± SD), MCF-7, CV
# Procedure: (§1) The cell proliferations of ligand precursors and organotin(IV) compounds were evaluated with the aid of MTT (3-(4,5-dimethylthiazol-2-yl)-2,5-12 diphenyltetrazolium bromide) and CV (crystal violet) assays toward prostate (PC-3), colon (HT-29), breast (MCF-7) and hepatic (HepG2) cancer cell lines, and normal mouse embryonic fibroblast cells (NIH 3T3). The cells were cultivated in T75 flasks containing 10 mL of complete medium and kept at 37 °C and 5% CO2 […]. The nutrient medium was RPMI-1640 (PAA Laboratories) supplemented with 10% foetal bovine serum, L-glutamine, and penicillin/streptomycin (Sigma). Afterward, 5.000 cells of PC-3 and MCF-7 and 1.500 cells of HT-29 and HepG2 were transferred into 96 well-plates and used for MTT and CV assays. For microscopy investigations as well as FACS measurements (except for ROS/RNS measurements), MCF-7 cells were seeded overnight in 6-well plates (150,000 cells/well) in […] of complete medium. […] In all assays, control cells were untreated MCF-7 cells incubated for the same time period as treated cells and treated with appropriate reagents in various assays. BD FACS Aria III was used for flow cytometry experiments and results were analysed using BD FACSDiva software (BD Biosciences, Heidelberg, Germany) and Cyflogic (V 1.2.1, CyFlo Ltd., Turku, Finland). A fluorescence microscope Invitrogen EVOS FL 2 Auto 2 Cell Imaging System was used for visualization of the cells as well as for detection of fluorescence in the cells.
# (§2) Ligands HL1‒HL3, organotin(IV) compounds, and cisplatin were investigated in 9 different concentrations (100, 50, 10, 5, 1, 0.5, 0.1, 0.05, 0.01 μM). Using the complete medium, each stock solution of the test compounds (20 mM in DMSO) was diluted to obtain the working solution. The final concentration of DMSO never overstepped 0.5%, which is non-toxic to the cells. Three technical replicates were performed for each concentration. The treated cells were incubated for 48 h at 37 °C under 5% CO2 and the viability of the cells was determined using MTT and CV assays according to the literature procedure. The IC50 values, defined as 50% inhibitory concentration, were calculated with a four-parameter logistic function and presented in a mean. All experiments were performed in triplicate.
# [2] = tested on: MCF-7 cells; test: Autophagy analysis (AO, flow cytometry); assay type: cell-based, human; details: 48 h, IC50 concentration
# Procedure: Thereafter, the medium was collected into 15 mL Falcon tubes, while the cells were washed with 1 mL of PBS. The cells were detached using […] of trypsin. The deactivation of trypsination was performed with the formerly collected medium, while for the untreated cells, 1 mL of complete medium was added, and the cells were collected by the pipette tip harvesting technique from each well into a new Falcon tube, which then was centrifuged for 3 min at 1000 rpm. The supernatant was discarded, and the cells were washed with 1 mL of PBS, centrifuged for 3 min at 1000 rpm and then the supernatant was discarded. Afterwards, 500 μL of the acridine orange (AO) working solution was used to stain the cells which then were incubated for 30 min at 37 °C under 5% CO2. The deactivation of the staining process was performed by adding 1 mL of PBS, and after centrifugation for 3 min at 1000 rpm, the supernatant was discarded. The cells were resuspended in 1 mL of PBS and analysed by flow cytometry.
# [3] = tested on: HT-29 (human colorectal adenocarcinoma) cells; test: MTT assay, HT-29 cells; assay type: cell-based; details: MTT assay, 48 h incubation; read-out: IC50 (mean ± SD), HT-29, MTT
# Procedure: as §1, §2
# [4] = tested on: PC-3 (human prostate cancer) cells; test: CV (crystal violet) assay, PC-3 cells; assay type: cell-based; details: CV assay, 48 h incubation; read-out: IC50 (mean ± SD), PC-3, CV
# Procedure: as §1, §2
# [5] = tested on: MCF-7 cells; test: Tin and platinum uptake by ICP-MS; assay type: cell-based, human; details: 24 h, at IC50 (CV assay): cisplatin 15.83 µM, Ph3SnL1 0.218 µM
# Procedure: The cellular uptake features of metal-based cytotoxic drugs strongly impact the underlying anticancer performance. Intracellular tin and platinum uptake in MCF-7 cells has been investigated with the aid of inductively coupled plasma mass spectrometry (ICP-MS) analysis. The treatment of cells with Ph3SnL1 and cisplatin for 24 h in concentrations corresponding to their IC50 values, as obtained by the CV assay, was performed.
# The tin and platinum uptake analysis was performed on MCF-7 cells with the aid of inductively coupled plasma mass spectrometry (ICP-MS). The cells were seeded in T25 flasks and allowed to grow. After 24 h, the exponentially growing cells were treated with 10 mL of Ph3SnL1 and cisplatin in concentrations corresponding to their IC50 values for 24 h, and thereafter trypsinised and collected by centrifugation at 1200 rpm for 8 min. Using 5 mL of ice-cold PBS the cells were washed and the metal uptake concentration in prepared samples was determined according to the previously described procedure. A Thermo Scientific iCAP Qc ICP-MS (Thermo Scientific, Bremen, Germany) instrument using the supplied autotune protocols and operational software Qtegra was employed for metal uptake determination. The measurements were performed on isotopes ^119Sn, ^120Sn, ^195Pt, and ^198Pt and the concentrations of metals were expressed as ppb (µg/L).
smiles,measurement,setting,value
"O=C(CCc1nc(-c2ccccc2)c(-c2ccccc2)o1)[O][Sn]([c]1ccccc1)([c]1ccccc1)[c]1ccccc1 [Ph3SnL1, (3-(4,5-Diphenyloxazol-2-yl)propanoato)triphenyltin(IV)]",times more powerful antiproliferative activity than cisplatin in MCF-7 cells,[1]; CV assay IC50 values,up to 70 times
same,IC50,[1],0.218 ± 0.025 µM
same,autophagy (AO),[2],autophagy process is not triggered
same,IC50,[3],0.237 ± 0.012 µM
same,IC50,[4],0.556 ± 0.038 µM
same,intracellular metal (tin / platinum) uptake,[5],two-fold lower concentration of tin in MCF-7 cells in comparison to platinum
"N.N.[Cl][Pt][Cl] [cisplatin, reference compound]",IC50,[1],15.8 ± 0.55 µM
same,autophagy (AO),[2],induces an autophagic response
same,IC50,[3],14.2 ± 0.73 µM
same,IC50,[4],13 ± 0.45 µM
same,intracellular metal (tin / platinum) uptake,[5],approximately twofold higher platinum concentration in MCF-7 cells compared to tin
